Test results taken from patent US20250059185A1 (Hoffmann-La Roche Inc., priority 2021, published 2025).

These compounds were tested against MAGL (Homo sapiens (Human), UniProt Q99685) (assay: 2-AG assay (MAGL inhibitory activity, hydrolysis of 2-arachidonoylglycerol followed by mass spectrometry)). Conditions: 50 pM MAGL protein, 15 min pre-incubation, 30 min incubation at RT.
Assay type: biochemical
How it was run: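 Human MAGL (50 pM final) preincubated 15 min at RT with compound (3-fold dilutions, 12.5 μM to 0.8 pM final) in 50 mM TRIS, 1 mM EDTA, 0.01% Tween-20, 2.5% DMSO. Reaction with […] 2-AG ran 30 min at RT, then was quenched with acetonitrile containing d8-arachidonic acid. Arachidonic acid measured by SPE–triple-quad MS (negative ESI), activity from the arachidonic/d8-arachidonic acid intensity ratio.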

Chain of MAGL (Q99685 whole entry, species assumed): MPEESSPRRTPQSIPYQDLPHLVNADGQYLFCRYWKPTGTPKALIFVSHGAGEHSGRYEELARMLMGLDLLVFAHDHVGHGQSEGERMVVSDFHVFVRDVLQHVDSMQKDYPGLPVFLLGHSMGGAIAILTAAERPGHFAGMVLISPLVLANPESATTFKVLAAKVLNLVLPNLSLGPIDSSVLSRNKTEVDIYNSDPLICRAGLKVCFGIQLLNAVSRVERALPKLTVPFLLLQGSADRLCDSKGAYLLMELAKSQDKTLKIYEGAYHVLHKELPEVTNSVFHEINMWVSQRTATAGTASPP

IC50 [nM] | SMILES
4290 | C[C@H]1c2nn(C)c(-c3cncc(C(F)(F)F)n3)c2CCN1C(=O)c1cc(F)cc(-c2ccc(=O)[nH]c2)c1Cl [Example 68, 5-[2-chloro-3-[(7S)-2,7-dimethyl-3-[6-(trifluoromethyl)pyrazin-2-yl]-5,7-dihydro-4H-pyrazolo[3,4-c]pyridine-6-carbonyl]-5-fluoro-phenyl]-1H-pyridin-2-one]
3 | COCCOc1cc(Cl)cc(-c2c3c(nn2C)[C@H](C)N(C(=O)c2cccc(OC)c2Cl)CC3)c1 [Example 69, [(7S)-3-[3-chloro-5-(2-methoxyethoxy)phenyl]-2,7-dimethyl-5,7-dihydro-4H-pyrazolo[3,4-c]pyridin-6-yl]-(2-chloro-3-methoxy-phenyl)methanone]
2160 | C[C@H]1c2nn(C)c(-c3cc(Cl)cc(C4(C(N)=O)CC4)c3)c2CCN1C(=O)c1cc(F)cc(-c2c[nH]c(C#N)c2)c1Cl [Example 71, 1-[3-chloro-5-[(7S)-6-[2-chloro-3-(5-cyano-1H-pyrrol-3-yl)-5-fluoro-benzoyl]-2,7-dimethyl-5,7-dihydro-4H-pyrazolo[3,4-c]pyridin-3-yl]phenyl]cyclopropanecarboxamide]
145 | C[C@H]1c2nn(C)c(-c3cc(Cl)cc(C4(S(C)(=O)=O)CC4)c3)c2CCN1C(=O)c1cc(F)cc(-c2ccc(=O)[nH]c2)c1Cl [Example 73, 5-[2-chloro-3-[(7S)-3-[3-chloro-5-(1-methylsulfonylcyclopropyl)phenyl]-2,7-dimethyl-5,7-dihydro-4H-pyrazolo[3,4-c]pyridine-6-carbonyl]-5-fluoro-phenyl]-1H-pyridin-2-one]
293 | C[C@@H]1c2nn(C)c(-c3cc(Cl)cc(C4(S(C)(=O)=O)CC4)c3)c2CCN1C(=O)c1cc(F)cc(-c2ccc(=O)[nH]c2)c1Cl [Example 74, 5-[2-chloro-3-[(7R)-3-[3-chloro-5-(1-methylsulfonylcyclopropyl)phenyl]-2,7-dimethyl-5,7-dihydro-4H-pyrazolo[3,4-c]pyridine-6-carbonyl]-5-fluoro-phenyl]-1H-pyridin-2-one]
1240 | C[C@H]1c2nn(C)c(-c3cc(Cl)cc(C4(C(N)=O)CC4)c3)c2CCN1C(=O)c1cc(F)cc(N2CC3(C2)CS(=O)(=O)C3)c1Cl [Example 75, 1-[3-chloro-5-[(7S)-6-[2-chloro-3-(2,2-dioxo-2λ^6-thia-6-azaspiro[3.3]heptan-6-yl)-5-fluoro-benzoyl]-2,7-dimethyl-5,7-dihydro-4H-pyrazolo[3,4-c]pyridin-3-yl]phenyl]cyclopropanecarboxamide]
1420 | C[C@@H]1c2nn(C)c(-c3cc(Cl)cc(C4(C(N)=O)CC4)c3)c2CCN1C(=O)c1cc(F)cc(N2CC3(C2)CS(=O)(=O)C3)c1Cl [Example 76, 1-[3-chloro-5-[(7R)-6-[2-chloro-3-(2,2-dioxo-2λ^6-thia-6-azaspiro[3.3]heptan-6-yl)-5-fluoro-benzoyl]-2,7-dimethyl-5,7-dihydro-4H-pyrazolo[3,4-c]pyridin-3-yl]phenyl]cyclopropanecarboxamide]
1460 | C[C@H]1c2nn(C)c(-c3cc(F)cc(F)c3)c2CCN1C(=O)c1ncn(-c2ccc[nH]c2=O)c1Cl [Example 77, 3-[5-chloro-4-[(7S)-3-(3,5-difluorophenyl)-2,7-dimethyl-5,7-dihydro-4H-pyrazolo[3,4-c]pyridine-6-carbonyl]imidazol-1-yl]-1H-pyridin-2-one]
1240 | COCCOc1cc(Cl)cc(-c2c3c(nn2C)[C@@H](C)N(C(=O)c2cccc(OC)c2Cl)CC3)c1 [Example 79, [(7R)-3-[3-chloro-5-(2-methoxyethoxy)phenyl]-2,7-dimethyl-5,7-dihydro-4H-pyrazolo[3,4-c]pyridin-6-yl]-(2-chloro-3-methoxy-phenyl)methanone]
21 | COc1cccc(C(=O)N2CCc3c(nn(C)c3-c3ccnc(C(F)(F)F)n3)[C@@H]2C)c1Cl [Example 81, (2-chloro-3-methoxy-phenyl)-[(7S)-2,7-dimethyl-3-[2-(trifluoromethyl)pyrimidin-4-yl]-5,7-dihydro-4H-pyrazolo[3,4-c]pyridin-6-yl]methanone]
13.8 | C[C@H]1c2nn(C)c(-c3cc(Cl)cc(C4(NS(C)(=O)=O)CC4)c3)c2CCN1C(=O)c1cc(F)cc(-c2c[nH]c(C#N)c2)c1Cl [Example 85, N-[1-[3-chloro-5-[(7S)-6-[2-chloro-3-(5-cyano-1H-pyrrol-3-yl)-5-fluoro-benzoyl]-2,7-dimethyl-5,7-dihydro-4H-pyrazolo[3,4-c]pyridin-3-yl]phenyl]cyclopropyl]methanesulfonamide]
8.15 | CC1c2nn(C)c(-c3cc(Cl)cc(C4(NS(C)(=O)=O)CC4)c3)c2CCN1C(=O)c1cc(F)cc(CCc2c[nH]nn2)c1Cl (stereo not drawn) [Example 87, N-[1-[3-chloro-5-[6-[2-chloro-5-fluoro-3-[2-(H-triazol-4-yl)ethyl]benzoyl]-2,7-dimethyl-5,7-dihydro-4H-pyrazolo[3,4-c]pyridin-3-yl]phenyl]cyclopropyl]methanesulfonamide]
26.8 | C[C@@H]1c2nn(C)c(-c3cc(Cl)cc(C4(NS(C)(=O)=O)CC4)c3)c2CCN1C(=O)c1cc(F)cc(CCc2c[nH]nn2)c1Cl [Example 89, N-[1-[3-chloro-5-[(7R)-6-[2-chloro-5-fluoro-3-[2-(1H-triazol-4-yl)ethyl]benzoyl]-2,7-dimethyl-5,7-dihydro-4H-pyrazolo[3,4-c]pyridin-3-yl]phenyl]cyclopropyl]methanesulfonamide]
734 | C[C@@H]1c2nn(C)c(-c3cc(F)c(F)c(F)c3)c2CCN1C(=O)c1cc(F)cc(-c2c[nH]c(C#N)c2)c1Cl [Example 93, 4-[2-chloro-3-[(7R)-2,7-dimethyl-3-(3,4,5-trifluorophenyl)-5,7-dihydro-4H-pyrazolo[3,4-c]pyridine-6-carbonyl]-5-fluoro-phenyl]-1H-pyrrole-2-carbonitrile]

The next lines start with the compound.

SMILES | IC50 [nM]
CC1c2nn(C)c(-c3cc(Cl)cc(C4(C(N)=O)CC4)c3)c2CCN1C(=O)c1cc(F)cc(OCC2CNC(=O)C2)c1Cl (stereo not drawn) [Example 70, 1-[3-chloro-5-[6-[2-chloro-5-fluoro-3-[(5-oxopyrrolidin-3-yl)methoxy]benzoyl]-2,7-dimethyl-5,7-dihydro-4H-pyrazolo[3,4-c]pyridin-3-yl]phenyl]cyclopropanecarboxamide] | 42
C[C@@H]1c2nn(C)c(-c3cc(Cl)cc(C4(C(N)=O)CC4)c3)c2CCN1C(=O)c1cc(F)cc(-c2c[nH]c(C#N)c2)c1Cl [Example 72, 1-[3-chloro-5-[(7R)-6-[2-chloro-3-(5-cyano-1H-pyrrol-3-yl)-5-fluoro-benzoyl]-2,7-dimethyl-5,7-dihydro-4H-pyrazolo[3,4-c]pyridin-3-yl]phenyl]cyclopropanecarboxamide] | 62
C[C@H]1c2nn(C)c(-c3cc(Cl)cc(C4(S(C)(=O)=O)CC4)c3)c2CCN1C(=O)c1ncn(-c2ccc[nH]c2=O)n1 [Example 78, 3-[3-[(7S)-3-[3-chloro-5-(1-methylsulfonylcyclopropyl)phenyl]-2,7-dimethyl-5,7-dihydro-4H-pyrazolo[3,4-c]pyridine-6-carbonyl]-1,2,4-triazol-1-yl]-1H-pyridin-2-one] | 275
COc1cccc(C(=O)N2CCc3c(nn(C)c3-c3cc(CNS(C)(=O)=O)cc(Cl)n3)C2C)c1Cl (stereo not drawn) [Example 80, N-[[2-chloro-6-[6-(2-chloro-3-methoxy-benzoyl)-2,7-dimethyl-5,7-dihydro-4H-pyrazolo[3,4-c]pyridin-3-yl]-4-pyridyl]methyl]methanesulfonamide] | 240
CC1c2nn(C)c(-c3cc(Cl)cc(C4(NS(C)(=O)=O)CC4)c3)c2CCN1C(=O)c1cc(F)cc(-c2c[nH]c(C#N)c2)c1Cl (stereo not drawn) [Example 84, N-[1-[3-chloro-5-[6-[2-chloro-3-(5-cyano-1H-pyrrol-3-yl)-5-fluoro-benzoyl]-2,7-dimethyl-5,7-dihydro-4H-pyrazolo[3,4-c]pyridin-3-yl]phenyl]cyclopropyl]methanesulfonamide] | 6.18
C[C@@H]1c2nn(C)c(-c3cc(Cl)cc(C4(NS(C)(=O)=O)CC4)c3)c2CCN1C(=O)c1cc(F)cc(-c2c[nH]c(C#N)c2)c1Cl [Example 86, N-[1-[3-chloro-5-[(7R)-6-[2-chloro-3-(5-cyano-1H-pyrrol-3-yl)-5-fluoro-benzoyl]-2,7-dimethyl-5,7-dihydro-4H-pyrazolo[3,4-c]pyridin-3-yl]phenyl]cyclopropyl]methanesulfonamide] | 1010
C[C@H]1c2nn(C)c(-c3cc(Cl)cc(C4(NS(C)(=O)=O)CC4)c3)c2CCN1C(=O)c1cc(F)cc(CCc2c[nH]nn2)c1Cl [Example 88, N-[1-[3-chloro-5-[(7S)-6-[2-chloro-5-fluoro-3-[2-(1H-triazol-4-yl)ethyl]benzoyl]-2,7-dimethyl-5,7-dihydro-4H-pyrazolo[3,4-c]pyridin-3-yl]phenyl]cyclopropyl]methanesulfonamide] | 1.77
C[C@H]1c2nn(C)c(-c3cc(F)c(F)c(F)c3F)c2CCN1C(=O)c1cc(F)cc(-c2c[nH]c(C#N)c2)c1Cl [Example 90, 4-[2-chloro-3-[(7S)-2,7-dimethyl-3-(2,3,4,5-tetrafluorophenyl)-5,7-dihydro-4H-pyrazolo[3,4-c]pyridine-6-carbonyl]-5-fluoro-phenyl]-1H-pyrrole-2-carbonitrile] | 24.6
C[C@H]1c2nn(C)c(-c3cc(Cl)cc(C4(NS(C)(=O)=O)CC4)c3)c2CCN1C(=O)c1ncn(-c2cc(Cl)cnc2O)n1 [Example 91, N-[1-[3-chloro-5-[(7S)-6-[1-(5-chloro-2-hydroxy-3-pyridyl)-1,2,4-triazole-3-carbonyl]-2,7-dimethyl-5,7-dihydro-4H-pyrazolo[3,4-c]pyridin-3-yl]phenyl]cyclopropyl]methanesulfonamide] | 1730
C[C@H]1c2nn(C)c(-c3cc(F)c(F)c(F)c3)c2CCN1C(=O)c1cc(F)cc(-c2c[nH]c(C#N)c2)c1Cl [Example 92, 4-[2-chloro-3-[(7S)-2,7-dimethyl-3-(3,4,5-trifluorophenyl)-5,7-dihydro-4H-pyrazolo[3,4-c]pyridine-6-carbonyl]-5-fluoro-phenyl]-1H-pyrrole-2-carbonitrile] | 4.35
